Measured values taken from ChEMBL document CHEMBL5113482, “Discovery of fused benzimidazole-imidazole autophagic flux inhibitors for treatment of triple-negative breast cancer” (Eur J Med Chem, 2022).

tested on: MDA-MB-231; experiment: Antiproliferative activity against human MDA-MB-231 cells assessed as cell growth inhibition measured after 48 hrs by MTT assay; assay type: functional, cell-based; settings: MDA-MB-231, 48 h

Compound | IC50 [µM]
Cn1cnc(-c2nc3ccccc3n2C)c1C(=O)NC1CCCCC1 | > 40
CC(C)(C)NC(=O)c1[nH]cnc1-c1nc2ccccc2[nH]1 | > 40
O=C(c1[nH]cnc1-c1nc2ccccc2[nH]1)N1CCOCC1 | > 40
O=c1[nH]cc(F)c(=O)[nH]1 [FLUOROURACIL] | 26.7
Cn1c(-c2nc[nH]c2C(=O)NC2CCCCC2)nc2ccccc21 | 36.8
Cc1cc2nc(-c3nc[nH]c3C(=O)NC3CCCCC3)[nH]c2cc1C | 35.6
O=C(NC1CCC1)c1[nH]cnc1-c1nc2ccccc2[nH]1 | 33.8
O=C(NC1CC1)c1[nH]cnc1-c1nc2ccccc2[nH]1 | 35.2
O=C(NCC1CC1)c1[nH]cnc1-c1nc2ccccc2[nH]1 | 33.1
N#Cc1ccccc1NC(=O)c1[nH]cnc1-c1nc2ccccc2[nH]1 | 34.2
O=C(NCc1ccco1)c1[nH]cnc1-c1nc2ccccc2[nH]1 | 22.2
O=C(Nc1cccc2ccccc12)c1[nH]cnc1-c1nc2ccccc2[nH]1 | 34.8
O=C(NC1CCCC1)c1[nH]cnc1-c1nc2ccccc2[nH]1 | 20.6
N#Cc1cccc(NC(=O)c2[nH]cnc2-c2nc3ccccc3[nH]2)c1 | 24.9
O=C(NC1CCCCCC1)c1[nH]cnc1-c1nc2ccccc2[nH]1 | > 40
O=C(NCc1cccs1)c1[nH]cnc1-c1nc2ccccc2[nH]1 | 35.1

tested on: MDA-MB-468; experiment: Antiproliferative activity against human MDA-MB-468 cells assessed as cell growth inhibition measured after 48 hrs by MTT assay; assay type: functional, cell-based; settings: MDA-MB-468, 48 h

Compound | IC50 [µM]
O=c1[nH]cc(F)c(=O)[nH]1 [FLUOROURACIL] | > 200
